Experimental data reported in PubChem BioAssay (NCI).
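All cell lines were grown in 96-well plates and treated with compound for 48 hours. TGI is the concentration that stops growth completely.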

What was measured:
Test in all cases: NCI anticancer screen, dose series, 48 h
[1] = test system: NCI/ADR-RES ovarian
[2] = test system: MDA-N
[3] = test system: PC-3 prostate
[4] = test system: HCC-2998 colon
[5] = test system: EKVX NSCLC
[6] = test system: A549 NSCLC
[7] = test system: HOP-92 NSCLC
[8] = test system: SF-268 CNS
[9] = test system: T-47D breast
[10] = test system: A498 renal
[11] = test system: DU-145 prostate
[12] = test system: HCT-15 colon
[13] = test system: OVCAR-3 ovarian
[14] = test system: HOP-62 NSCLC
[15] = test system: SK-MEL-2 melanoma
[16] = test system: SF-539 CNS
[17] = test system: OVCAR-8 ovarian
[18] = test system: HL-60(TB) leukemia
[19] = test system: LOX IMVI melanoma
[20] = test system: SR leukemia

Row | Compound | TGI [1] [µM] | TGI [2] [µM] | TGI [3] [µM] | TGI [4] [µM] | TGI [5] [µM] | TGI [6] [µM] | TGI [7] [µM] | TGI [8] [µM] | TGI [9] [µM] | TGI [10] [µM] | TGI [11] [µM] | TGI [12] [µM] | TGI [13] [µM] | TGI [14] [µM] | TGI [15] [µM] | TGI [16] [µM] | TGI [17] [µM] | TGI [18] [µM] | TGI [19] [µM] | TGI [20] [µM]
1 | O=c1[nH]c(=S)c2cc3c(=S)[nH]c(=O)n(CCC(c4ccccc4)(c4ccccc4)c4ccccc4)c3nc2n1CCC(c1ccccc1)(c1ccccc1)c1ccccc1 | > 100 | > 100 | > 100 | > 100 | > 100 | > 100 | > 100 | > 100 | > 100 | > 100 | > 100 | > 100 | > 100 | > 100 | > 100 | – | – | – | – | –
2 | COC(=O)c1c(C)ccc2c(O)c3c(cc12)C(=O)c1c2c(cc(O)c1C3=O)C1(C)OC(C)(O2)C(O)C(N(C)C)C1O (stereo not drawn) | > 100 | 2.58 | 4.89 | 1.39 | 8.75 | – | > 100 | 2.7 | – | 7.46 | 2.46 | – | 9.59 | 13.4 | 5.65 | 12.8 | 2.27 | 15.4 | – | –
3 | [N-]=[N+]=NC1=NNC2(C(=O)N1)c1ccccc1-c1ccccc12 | > 100 | > 100 | > 100 | > 100 | > 100 | > 100 | > 100 | > 100 | – | > 100 | > 100 | > 100 | > 100 | > 100 | > 100 | > 100 | > 100 | > 100 | > 100 | –
4 | Cn1nc(-c2ccccc2)c(N=[N+]=[N-])cc1=O | – | – | – | > 100 | > 100 | > 100 | – | > 100 | – | > 100 | – | > 100 | > 100 | > 100 | – | > 100 | > 100 | > 100 | > 100 | > 100
5 | CC1(C)C2CCC1(C)C(N/C(=C(/C(Cl)=C(Cl)Cl)[N+](=O)[O-])n1nnc3ccccc31)C2 (stereo not drawn) | 97.6 | > 100 | 48.3 | > 100 | > 100 | > 100 | – | 37.9 | > 100 | 37.5 | – | 93.4 | 32.6 | 67 | 61 | > 100 | > 100 | – | > 100 | –
6 | Cc1ccc(S(=O)(=O)NC(=O)NC(Cc2ccccc2)C(=O)O)cc1 (stereo not drawn) | > 100 | – | > 100 | – | – | > 100 | > 100 | > 100 | > 100 | – | > 100 | > 100 | – | > 100 | > 100 | > 100 | > 100 | > 100 | > 100 | > 100
7 | N#CC(c1nc2ccccc2s1)c1nc(Cl)ncc1Br (stereo not drawn) | > 100 | > 100 | – | – | > 100 | > 100 | 52 | > 100 | > 100 | > 100 | > 100 | > 100 | 97.7 | > 100 | – | 82 | > 100 | – | > 100 | –
8 | COc1ccc(C[C@H]2NC(=O)/C=C/C[C@@H]([C@H](C)[C@H]3O[C@@H]3c3ccccc3)OC(=O)[C@H](CC(C)C)OC(=O)[C@H](C)CNC2=O)cc1 | > 0.0001 | 2.32e-05 | > 0.0001 | > 0.0001 | > 9.66e-05 | > 0.0001 | – | > 0.0001 | > 0.0001 | 8.37e-05 | > 8.97e-05 | > 0.0001 | > 0.0001 | > 7.45e-05 | > 0.0001 | 4.36e-05 | 5.55e-05 | 5.2e-05 | > 0.0001 | –
9 | CCOC(=O)c1[nH]cnc1/N=N/N(C)N | > 100 | > 100 | > 100 | > 100 | > 100 | > 100 | – | > 100 | > 100 | > 100 | > 100 | > 100 | > 100 | > 100 | > 100 | > 100 | > 100 | 68.6 | > 100 | –
10 | CCCN=C1Nc2ccccc2[C@@H]2N(C)c3ccccc3C(C)C[C@]12C (stereo partly drawn) | 52 | 38.7 | 40.8 | 26.3 | > 100 | > 100 | – | 54.6 | 49.6 | 28.6 | > 100 | 56.4 | 54.1 | 32.1 | 28.1 | 30.5 | 28.9 | 56.1 | 27.7 | –
11 | CCC(C)NC(=S)N/N=C(\C)c1ccccn1 (stereo not drawn) | 7.94 | > 80 | > 100 | > 100 | – | > 33.5 | 0.668 | > 100 | 41.7 | > 26 | > 46.8 | > 100 | 23.4 | > 25.8 | > 100 | 6.89 | > 25.8 | – | > 100 | –
